Laboratory results reported in publication PMC11429909, “Protein Structure Inspired Discovery of a Novel Inducer of Anoikis in Human Melanoma” (Cancers, 2024).

Key:
Format in all cases: cell-based, human
M14 = assay: Eight-day colony formation assay, melanoma M14
Method: In addition to screens, eight-day colony formation assays were conducted for certain experiments, as denoted. When measuring the effect of 5-fluorouracil (5FU) on HT29 colon cancer cells, the following final 5FU concentrations were examined: 0 (DMSO only), 0.0012, 0.012, 0.12, 0.82, 5.7, 20, and 40 µM. When measuring the effect of Dxr2-017 on melanoma cell growth, the following concentrations were examined: 0 (DMSO only), 0.001, 0.01, 0.1, 1.0, and 10.0 µM. Melanoma studies were performed on M14 and SK-MEL-5 human melanoma cell lines. For each Dxr2-017 concentration for each cell line, there were N = 3 replicates, and experiments were performed a total of 3 separate times (each with N = 3 replicates). The IC50 values were calculated using nonlinear regression analysis. Data from individual experiments were log-transformed and fitted to a dose–response curve using the four-parameter logistic model of GraphPad Prism 10 software. The IC50 values were determined using the dose–response inhibition function. IC50 values from each of three different experiments were used to calculate mean ± SEM.

NCI-60 cell lines = assay: NCI-60 cell line screen; conditions: 48 h at 10 µM
Method: The above findings support the importance of Dxr2 and FolC2 sites, and of Dxr2-017 and FolC2-001 compounds, respectively. The NCI-60 cell line screen evaluates compound growth inhibition and cell toxicity in a highly standardized manner across 60 different cell lines. Dxr2-017 and FolC2-001 were evaluated in this assay (Figure S6). NCI-60 screens evaluate cells treated for 48 h at 10 µM with a given compound. […] Of high interest, in the NCI-60 screen, Dxr2-017 had relatively high activity against melanoma cell lines, inducing cell death in five cell lines ranging from 25% to 65%, and inhibiting growth in four cell lines ranging from 76% to 96%. Its impact on cell death represented the most striking relative difference in response across cell lines.

SK-MEL-5 cells = assay: Cell cycle analysis by flow cytometry, SK-MEL-5; conditions: 50 nM, eight days
Method: A total of 1 × 10^4 M14 cells and 1 × 10^4 SK-MEL-5 cells were seeded into 10 cm culture dishes. Twenty-four hours later, cells were treated in replicates of N = 3, with Dxr2-017 at 20 nM for M14 and 50 nM for SK-MEL-5, or vehicle for controls for a total of eight days, with replacement of media, along with Dxr2-017 or vehicle, at day five. Cells were then collected, filtered to obtain single-cell suspensions, equal numbers of cells were fixed in 1 mL of 70% ethanol at 4 °C for 1 h, washed with PBS, and resuspended in 1 mL of Telford reagent (1 mM EDTA disodium salt, 2.5 U/mL RNAse A, 75 µM Propidium Iodide, and 0.1% Triton X-100 in PBS), and then incubated at 4 °C overnight. Cells were analyzed by flow cytometry (FACSCalibur analyzer, BD Biosciences). Cells were gated on forward scatter (FSC) versus side scatter (SCC) to remove debris, followed by gating of single cells using PI (FL2)-Area versus PI (FL2)-Width. Cell cycle analysis was performed on the PI (FL2)-Area parameter, and the percentages of cells within G0/G1, S, and G2/M phases were determined using Modfit LT 4.0.5.

pan-cadherin = assay: Western blot for pan-cadherin, M14
Method: After treatment of M14 and SK-MEL-5 cells with different concentrations of Dxr2-017 or vehicle for 3 or 8 days, as denoted, cell images were captured at 20X in a transmitted light channel using the EVOS™ M5000 Imaging System (Invitrogen (Waltham, MA, USA)). Western blots were performed as previously described by us. Briefly, cells were collected and lysed using RIPA lysis buffer (25 mM Tris-HCl pH 7.6, 150 mM NaCl, 1% NP-40, 1% sodium deoxycholate, and 0.1% SDS; Thermo Scientific^TM (Waltham, MA, USA), #89900), supplemented with protease and phosphatase inhibitor cocktail (Thermo Scientific^TM, #78442) and 1 mM of PMSF. Resultant Western blots were probed using antibodies against cleaved caspase 3 (Cell Signaling Technology (Danvers, MA, USA), #9664), pan-cadherin (Cell Signaling Technology, #4068), and β-actin (Santa Cruz (Santa Cruz, CA, USA), #sc-47778).
These findings led us to compare cleaved caspase 3 between adherent cells and floating cells. Cleaved caspase 3 is an indicator of programmed cell death, and its triggering by loss of cell attachment is an established means of detecting anoikis. Adherent cells were prepared as above. […]

c1ccc2sc(-c3ccc(CNc4ccc5nnnn5n4)o3)nc2c1 [Dxr2-017]
IC50 (M14; Homo sapiens, 192 h, M14 melanoma, mean ± SEM of three experiments): 12 nM
fold efficacy relative to bone marrow stem cells treated at 40 µM (M14; M14 IC50 versus eight-day bone marrow treatment at 40 µM): over 2100 fold
activity in the NCI-60 screen (in words) (NCI-60 cell lines): activity against HT29, MDA-MB-231, and H226
effect on cell cycle parameters (SK-MEL-5 cells): little-to-no change in cell cycle parameters
cadherin expression (pan-cadherin): decreased cadherin expression in a concentration-dependent manner
